Experimental data from patent publication US20040097583A1, “Use of inhibitors of the sodium/hydrogen exchanger for the treatment of thrombotic and inflammatory disorders” (priority 2002, published 2004).
Where “and” joins values, the source holds several entries; their conditions need not be identical. Equal entries are not always repeated. Entries after “also recorded” stand apart in the source; their conditions may differ.

Key:
[1] = test system: human umbilical vein endothelial cells (HUVEC); assay: Measurement of vWF release after reperfusion (ELISA of cell supernatant); assay type: cell-based
Description: (§1) All the examples were carried out with human umbilical vein endothelial cells (HUVEC). These comprise primary cell cultures isolated from the umbilical vein.
(§2) For the following examples, the cells were cultivated either on gelatinized glass plates (measurement of the intracellular proton concentration) or on cell culture plates (12-well culture plates, Falcon, N.J., USA; measurement of vWF release) after the first passage.
The measurements were carried out in a Heraeus Heracell incubator. This made it possible to […] the umbilical vein endothelial cells under controlled physiological conditions (temperature 37° C., relative humidity 100%, pCO2 constant at 5%), and to ensure rapid change of different cell culture media.
Said cells were initially incubated with acidotic medium (pH 6.4 composed of the ingredients: medium M199 w/Earle's & amino acids, w/L-glutamine, w/o NaHCO3, w/o Hepes+0.084 g NaHCO3/1) or pH standard medium (pH 7.4 composed of the ingredients: medium M199 w/Earle's & amino acids, w/L-glutamine, w/o NaHCO3, w/o Hepes+2.200 g NaHCO3/1), for one, three or 48 hours. Before starting the reperfusion, samples of supernatant were taken to determine the vWF concentration under acidotic conditions (vWFacidosis) and control conditions (vWFco). To simulate reperfusion, the medium was changed to one with a pH of 7.4 (ingredients: medium M199 w/Earle's & amino acids, w/L-glutamine, w/o NaHCO3, w/o Hepes+2.200 g NaHCO3/1+10 μM histamine) to which the NHE inhibitor cariporide was added in a concentration of 10 μM. Change to the same medium without corresponding addition of inhibitor served as control.
The samples taken from the supernatant were used to determine the vWF concentration. This was done by an ELISA method (enzyme-linked immuno sorbent assay) using specific antibodies. The vWF content of standard human plasma (Behring, Marburg) is calculated using an international standard (2nd International Standard 87/718, National Institute for Biological Standards and Control, London).

[2] = test system: human umbilical vein endothelial cells (HUVEC); assay: Measurement of the intracellular pH (pHi) during reperfusion simulation after acidosis, BCECF fluorescence; assay type: cell-based
Description: as §1, §2
To measure the intracellular proton concentration (pHi), the HUVECs were loaded with the pH-sensitive fluorescent dye, BCECF-AM (2′,7′-bis(carboxyethyl)-5(6)-carboxyfluorescein). A Deltascan spectrofluorometer (PTI, Hamburg) was employed for the subsequent fluorescence measurement. This measuring system consists essentially of a UV light source, a monochromator, a photon detector and the Felix and Oscar software packages (PTI, Hamburg) for controlling the system via a computer. After alternate excitation with the wavelengths 439.5 nm (pH-independent) and 490 nm (pH-sensitive), the ratio of the measured emissions of the BCECF (ratio) was reported and the pH was found after a calibration. The measuring cell is designed so that the parameters of temperature and carbon dioxide partial pressure in the system are controlled during continuous perfusion. For the reperfusion simulation, the experimental conditions were set at 37° C. and a carbon dioxide partial pressure of 5% or 10% by gassing the system and perfusate.
In the experiment, there was initially preincubation with sodium bicarbonate buffer pHex 6.4 for 60 minutes in order to simulate […] metabolic acidosis. The initiation perfusion was then changed to sodium bicarbonate buffer of pH 7.4 with 10 μM histamine as reperfusion simulation. These control experiments were compared with an experiment in which the NHE inhibitor cariporide was added in a concentration of 10 μM to the reperfusion buffer.

CC(C)c1ccc(C(=O)N=C(N)N)cc1S(C)(=O)=O [cariporide]
Effect on vWF secretion of healthy, non-acidotic control cells (in words) ([1]; control cells incubated with cariporide (10 μM)): no increase or decrease in vWF secretion; also recorded: showed no effect | vWF secretion relative to control cells (vWFco = 100%), control cells incubated with cariporide (vWFco+HOE) ([1]; non-acidotic control cells, 10 μM cariporide, 10-minute reperfusion time with stimulation): 106 ± 3.0% | vWF concentration during reperfusion of preacidotic cells in the presence of cariporide (vWFHOE), relative to control (vWFco = 100%) ([1]; preacidotic cells (pH 6.4), 10 μM cariporide, 10-minute reperfusion time with stimulation, without cariporide 193 ± 8.0%): 139 ± 16% | Reduction of the increased vWF secretion during reperfusion ([1]; preacidotic cells, 10 μM cariporide): ~60% | Rate of pH increase, Mean ± SEM ([2]; 10 μM cariporide in reperfusion buffer pH 7.4 with 10 μM histamine, after 60 minutes of acidosis (pHex 6.4), first 30 seconds after reperfusion): 0.27 ± 0.02 Δ pH / min | Rate of pH increase, individual experiments ([2]; 10 μM cariporide in reperfusion buffer pH 7.4 with 10 μM histamine, after 60 minutes of acidosis (pHex 6.4), first 30 seconds after reperfusion, listed as HOE): 0.30 Δ pH / min and 0.24 Δ pH / min (2×) and 0.23 Δ pH / min and 0.34 Δ pH / min | Reduction in the rate of increase in intracellular pH compared with the control (factor) ([2]; extracellular pH changed from 6.4 to 7.4, 10 μM cariporide): 3.6
